The record followed here is publication PMC8645223, “Development of a simple and miniaturized sandwich-like fluorescence polarization assay for rapid screening of SARS-CoV-2 main protease inhibitors” (Cell & Bioscience, 2021).

Series [1] addresses T1, SARS-CoV-2 Mpro (Severe acute respiratory syndrome coronavirus 2, UniProt P0DTD1). The series can be described thus: sandwich-like FP screening assay. It counts as biochemical.
Series [2] concerns the target T1, SARS-CoV-2 Mpro. The series can be described thus: SPR binding assay. The procedure: The binding affinity between dieckol and Mpro was measured using a real-time SPR spectroscopy instrument (Reichert 2SPR, Buffalo, USA). In all, 20 µL Mpro (1.6 mg/mL) in 10 mM NaAc buffer (pH5.5) was immobilized to a surface activated CM5 gold biosensor (Reichert Inc., New York, USA), and the active sites were quenched with 1 M ethanolamine buffer (pH8.0). After washing the sample loop, an indicated concentration of dieckol (0, 6.25, 12.5, 25 µM) was separately injected on the surface of the Mpro-captured biosensor at RT. The binding time of the analyte to the ligand was 90 s, and the dissociation kinetic was recorded during 330 s. Finally, the real RIU was continuously monitored, and the RIU can be related to arbitrary resonance unit (RU) as 1 µRIU = 0.733 RU. The KD value was calculated using the analyte binding kinetic curve plotted by Trace Drawer software (Ridgeview Instruments, Sweden).

Series [3] addresses T1, SARS-CoV-2 Mpro. In words: FRET assay, inhibition of Mpro proteolytic activity. It counts as biochemical. Particulars: for IC50: IC50, FRET assay. As for the experimental part:
As described previously, the inhibitory activity of dieckol against Mpro was preformed using a FRET assay. In brief, 50 µL sample of Mpro (0.4 µM) was preincubated with the indicated concentrations of dieckol (initial concentration: 100 µM, 8 two-fold dilutions) at RT for 35 min in FP assay buffer, and the reaction was initiated by adding 5 µM FRET substrate. DMSO and GC-376 (1 µM) was used as a negative and positive control, respectively. The RFU change was separately measured as described previously every second for 3 min by a microplate reader. The VI was calculated by a slope of the linear regression in the first 30 s, and the IC50 value was calculated using the following equation:3 Dieckolinhibition(%)=1-VIDieckol/VIDMSO×100%
To clarify the inhibitory mechanism of dieckol, the fixed concentrations of dieckol (0, 2, 4, 6 µM) were separately added to 50 µL sample of Mpro (0.4 µM), and the mixture was preincubated for 10 min at RT. After adding 5 µM FRET substrate, the VI was measured using a FRET assay. The inhibition mechanism of dieckol was inferred using the LB plot and a Ki value was generated by its secondary plot.

Series [4] relates to COc1ccc2c(CC(=O)N[C@@H](C)C(=O)N[C@H](C(=O)N[C@@H](CC(C)C)C(=O)N[C@@H](CCC(N)=O)C(=O)N[C@@H](CO)C(=O)NCC(=O)N[C@@H](Cc3ccccc3)C(=O)N[C@@H](CCCNC(=N)N)C(=O)N[C@@H](CCCCNc3ccc([N+](=O)[O-])cc3[N+](=O)[O-])C(=O)N[C@@H](CCCCN)C(N)=O)C(C)C)cc(=O)oc2c1. In words: purified protein, by the assay type. As to conditions: pH 8.0.

On to `Oc1cc(O)cc(Oc2c(O)cc(O)c3c2Oc2c(O)cc(Oc4c(O)cc(Oc5c(O)cc(O)c6c5Oc5c(O)cc(O)cc5O6)cc4O)cc2O3)c1` [dieckol], for which the IC50 – broadly, the concentration needed to halve the response being measured – came out at 2.9 ± 0.2 µM against SARS-CoV-2 Mpro [1] (absence of DTT), 4.5 ± 0.4 µM on SARS-CoV-2 Mpro [1] (presence of 1 mM DTT), 1.8 ± 0.2 µM at SARS-CoV-2 Mpro [3] (absence of DTT) and 3.8 ± 0.3 µM on SARS-CoV-2 Mpro [3] (presence of 1 mM DTT). For the same compound, on SARS-CoV-2 Mpro [2], the Kd – broadly, a measure of binding affinity in units of concentration – worked out at 0.22 µM. The compound also had a kd on SARS-CoV-2 Mpro [2] (SPR dissociation rate) of 0.000226 s⁻¹. Further, at SARS-CoV-2 Mpro [3], the Ki (usually a dissociation constant, usually derived from enzyme kinetics or from competition with a known ligand) was 3.3 µM. In addition, the inhibition mechanism result on SARS-CoV-2 Mpro [3] (Lineweaver-Burk plot, same Vmax, varying Km) is reported as “competitive inhibitor”.

With “SARS-CoV-2 Mpro (Severe acute respiratory syndrome coronavirus 2)”, the Km (as a rule, the substrate concentration at which the rate is half of its maximum) in series [4] came to 19.78 µM.
